Here are results for 29 compounds from patent publication US8258311B2, “Human protein tyrosine phosphatase inhibitors and methods of use” (Aerpio Therapeutics Inc., priority 2006, dated 2012).

The target of one assay is HPTPβ (Homo sapiens, UniProt P23467). Description: HPTPβ inhibition (IC50). In kind it is biochemical.
The target in the next assay is T1, PTP1B (Homo sapiens, UniProt P18031).
T1 sequence (P18031 1-435): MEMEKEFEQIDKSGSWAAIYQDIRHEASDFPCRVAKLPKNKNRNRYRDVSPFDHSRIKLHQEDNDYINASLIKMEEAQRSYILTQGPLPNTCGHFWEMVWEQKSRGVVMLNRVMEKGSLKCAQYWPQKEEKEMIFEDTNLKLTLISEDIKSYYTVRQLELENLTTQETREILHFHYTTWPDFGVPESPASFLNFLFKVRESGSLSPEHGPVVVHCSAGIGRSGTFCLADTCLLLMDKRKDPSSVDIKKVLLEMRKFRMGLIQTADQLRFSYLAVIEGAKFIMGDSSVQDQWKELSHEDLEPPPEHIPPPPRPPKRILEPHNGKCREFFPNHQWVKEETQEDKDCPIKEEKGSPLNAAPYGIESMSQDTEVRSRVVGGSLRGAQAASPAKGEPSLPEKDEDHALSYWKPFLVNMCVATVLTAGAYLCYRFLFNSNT
Description: PTP1B inhibition (IC50). In kind it is biochemical.

A word on the IC50: it is the concentration that inhibits the measured activity by half.

HPTPβ, sequence (P23467 23-1997): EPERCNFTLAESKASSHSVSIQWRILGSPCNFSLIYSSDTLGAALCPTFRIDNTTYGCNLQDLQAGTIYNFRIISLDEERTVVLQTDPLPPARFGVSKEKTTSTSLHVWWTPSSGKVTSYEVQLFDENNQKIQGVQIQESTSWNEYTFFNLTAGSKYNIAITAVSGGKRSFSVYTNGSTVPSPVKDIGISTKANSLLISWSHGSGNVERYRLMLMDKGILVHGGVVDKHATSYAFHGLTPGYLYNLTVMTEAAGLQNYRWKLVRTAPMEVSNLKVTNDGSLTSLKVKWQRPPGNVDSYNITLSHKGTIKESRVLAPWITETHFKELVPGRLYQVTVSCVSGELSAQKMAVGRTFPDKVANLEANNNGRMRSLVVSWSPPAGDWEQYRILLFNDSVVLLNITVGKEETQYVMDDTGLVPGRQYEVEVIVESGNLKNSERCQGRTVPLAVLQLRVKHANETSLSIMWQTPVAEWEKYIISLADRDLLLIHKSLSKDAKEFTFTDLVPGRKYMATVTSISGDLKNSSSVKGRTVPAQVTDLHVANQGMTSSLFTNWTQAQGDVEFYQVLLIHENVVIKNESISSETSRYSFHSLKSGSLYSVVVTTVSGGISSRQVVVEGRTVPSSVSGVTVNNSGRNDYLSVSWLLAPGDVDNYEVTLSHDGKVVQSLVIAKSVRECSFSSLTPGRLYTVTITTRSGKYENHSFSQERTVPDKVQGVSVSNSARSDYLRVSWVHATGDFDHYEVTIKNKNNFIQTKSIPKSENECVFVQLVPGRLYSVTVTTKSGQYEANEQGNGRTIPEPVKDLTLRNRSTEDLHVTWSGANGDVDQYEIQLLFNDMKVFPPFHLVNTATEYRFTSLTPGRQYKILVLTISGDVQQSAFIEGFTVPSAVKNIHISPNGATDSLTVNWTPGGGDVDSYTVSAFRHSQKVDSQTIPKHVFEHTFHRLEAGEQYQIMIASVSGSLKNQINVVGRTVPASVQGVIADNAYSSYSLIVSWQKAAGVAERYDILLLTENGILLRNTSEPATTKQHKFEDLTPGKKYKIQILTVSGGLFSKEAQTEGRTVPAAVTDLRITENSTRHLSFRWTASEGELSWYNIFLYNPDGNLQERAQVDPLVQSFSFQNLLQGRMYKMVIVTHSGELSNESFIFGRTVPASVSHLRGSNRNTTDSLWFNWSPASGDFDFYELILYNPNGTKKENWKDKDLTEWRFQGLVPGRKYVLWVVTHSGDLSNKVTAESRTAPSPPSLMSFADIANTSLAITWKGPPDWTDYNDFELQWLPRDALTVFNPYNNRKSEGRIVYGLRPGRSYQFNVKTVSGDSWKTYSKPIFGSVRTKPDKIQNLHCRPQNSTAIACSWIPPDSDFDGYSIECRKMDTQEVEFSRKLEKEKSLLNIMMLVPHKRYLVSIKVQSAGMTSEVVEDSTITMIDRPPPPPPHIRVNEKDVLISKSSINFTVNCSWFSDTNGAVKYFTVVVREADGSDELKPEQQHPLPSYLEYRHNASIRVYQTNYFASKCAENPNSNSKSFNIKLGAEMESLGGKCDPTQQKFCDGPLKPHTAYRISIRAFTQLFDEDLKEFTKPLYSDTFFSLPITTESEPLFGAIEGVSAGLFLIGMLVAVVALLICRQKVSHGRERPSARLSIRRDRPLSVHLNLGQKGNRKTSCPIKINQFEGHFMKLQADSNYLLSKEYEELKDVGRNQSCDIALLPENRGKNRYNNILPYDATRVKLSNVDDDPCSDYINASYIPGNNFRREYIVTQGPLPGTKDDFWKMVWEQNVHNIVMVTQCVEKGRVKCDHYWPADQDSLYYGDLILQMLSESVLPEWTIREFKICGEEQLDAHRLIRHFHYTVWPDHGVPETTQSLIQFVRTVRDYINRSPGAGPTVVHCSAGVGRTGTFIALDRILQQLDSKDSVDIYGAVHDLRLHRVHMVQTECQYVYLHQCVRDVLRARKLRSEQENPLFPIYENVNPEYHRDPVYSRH

Regarding `CC(C)(C)OC(=O)N[C@@H](Cc1ccc(NS(=O)(=O)O)cc1)c1nc(-c2ccccc2)cs1` [[1-(S)-(Phenylthiazol-2-yl)-2-(4-sulfoaminophenyl)ethyl]-carbamic acid tert-butyl ester], the IC50 amounted to 49 nM on HPTPβ and 33000 nM against PTP1B.

For the compound `COC(=O)N[C@@H](Cc1ccccc1)C(=O)N[C@@H](Cc1ccc(NS(=O)(=O)O)cc1)c1nc(-c2cccs2)cs1` [4-{(S)-2-[(S)-2-(Methoxycarbonylamino)-3-phenylpropanamido]-2-[4-(thiophen-2-yl)thiazol-2-yl]ethyl}phenylsulfamic acid], inhibition against PTP1B was half-maximal at 990 nM (IC50).

As for `CCc1nc([C@H](Cc2ccc(NS(=O)(=O)O)cc2)NC(=O)[C@H](Cc2ccccc2)NC(=O)OC)cs1` [4-{(S)-2-[(S)-2-(Methoxycarbonylamino)-3-phenylpropanamido]-2-(2-ethylthiazol-4-yl)ethyl}phenylsulfamic acid], the IC50 is 0.1 nM against HPTPβ and 1010 nM against PTP1B.

For the compound `COC(=O)N[C@@H](Cc1ccccc1)C(=O)N[C@@H](Cc1ccc(NS(=O)(=O)O)cc1)c1nc(CCC(F)(F)F)cs1` [4-{(S)-2-[(S)-2-(Methoxycarbonylamino)-3-phenylpropanamido)-2-[4-(3,3,3-trifluoropropyl)thiazol-2-yl]ethyl}phenylsulfamic acid], the IC50 against HPTPβ is 0.08 nM; against PTP1B, 120 nM.

Regarding `COC(=O)N[C@@H](Cc1ccccc1)C(=O)N[C@@H](Cc1ccc(NS(=O)(=O)O)cc1)c1csc(C)n1` [4-{(S)-2-[(S)-2-(Methoxycarbonylamino)-3-phenylpropanamido]-2-(2-methylthiazol-4-yl)ethyl}phenylsulfamic acid], the IC50 against HPTPβ is 1 nM; against PTP1B it was 1160 nM.

As to `CCc1csc([C@H](Cc2ccc(NS(=O)(=O)O)cc2)NC(=O)[C@@H](NC(=O)OC)C(C)C)n1` [4-{(S)-2-(4-Ethylthiazol-2-yl)-2-[(S)-2-(methoxycarbonylamino)-3-methylbutanamido]-ethyl}phenylsulfamic acid], the values for the IC50 against HPTPβ and at PTP1B were 3 nM and 1030 nM, respectively.

Consider `CCOC(=O)c1csc([C@H](Cc2ccc(NS(=O)(=O)O)cc2)NC(=O)C(C)(C)C)n1` [(S)-4-{[2-(4-Ethoxycarbonyl)thiazol-2-yl]-2-pivalamidoethyl}phenylsulfamic acid], for which the IC50 worked out at 584 nM on HPTPβ and 44900 nM at PTP1B.

Consider `CCc1csc([C@H](Cc2ccc(NS(=O)(=O)O)cc2)NC(=O)[C@H](Cc2ccccc2)NC(=O)OC)n1` [4-{(S)-2-(4-Ethylthiazol-2-yl)-2-[(S)-2-(methoxycarbonylamino)-3-phenylpropanamido]ethyl}phenylsulfamic acid], for which the figures for the IC50 against HPTPβ and at PTP1B were 0.162 nM and 490 nM, respectively.

`COc1cccc(-c2csc([C@H](Cc3ccc(NS(=O)(=O)O)cc3)NC(=O)C(C)(C)C)n2)c1` [4-((S)-2-(4-(3-Methoxyphenyl)thiazol-2-yl)-2-pivalamidoethyl)phenylsulfamic acid]: the IC50 was 110 nM against HPTPβ and 40100 nM against PTP1B.

`CCc1csc([C@H](Cc2ccc(NS(=O)(=O)O)cc2)NC(=O)CNC(=O)OC(C)(C)C)n1` [(S)-4-{2-[2-(tert-Butoxycarbonylamino)acetamido]-2-(4-ethylthiazol-2-yl)ethyl}phenylsulfamic acid]: the IC50 on HPTPβ came out at 28 nM; against PTP1B it was 16000 nM.

`CCc1csc([C@H](Cc2ccc(NS(=O)(=O)O)cc2)NC(=O)Cc2ccccc2)n1` [(S)-{4-[2-(4-Ethylthiazol-2-yl)-2-(phenylacetylamino)ethyl]-phenyl}sulfamic acid]: the IC50 on HPTPβ worked out at 0.157 nM; on PTP1B, 722 nM.

For the compound `CCc1csc([C@H](Cc2ccc(NS(=O)(=O)O)cc2)NC(=O)[C@H](CC(C)C)NC(=O)OC)n1` [4-{(S)-2-(4-Ethylthiazol-2-yl)-2-[(S)-2-(methoxycarbonylamino)-4-methylpentanamido]ethyl}phenylsulfamic acid], the IC50 against HPTPβ was determined as 0.3 nM; against PTP1B, 70 nM.

Compound `COC(=O)N[C@@H](Cc1ccccc1)C(=O)N[C@@H](Cc1ccc(NS(=O)(=O)O)cc1)c1nc(-c2ccccc2)cs1` [4-{(S)-2-[(S)-2-(Methoxycarbonylamino)-3-phenylpropanamido]-2-(4-phenylthiazol-2-yl)ethyl}phenylsulfamic acid] registered an IC50 on PTP1B of 597 nM.

`CCc1csc([C@H](Cc2ccc(NS(=O)(=O)O)cc2)NC(=O)CNC(=O)OC)n1` [(S)-4-{2-(4-Ethylthiazol-2-yl)-2-[2-(methoxycarbonylamino)acetamido]ethyl}phenylsulfamic acid]: the results for the 50% inhibitory concentration (IC50) against HPTPβ and against PTP1B were 20 nM and 5260 nM, respectively.

In the case of `CC(C)(C)OC(=O)N[C@@H](Cc1ccccc1)C(=O)N[C@@H](Cc1ccc(NS(=O)(=O)O)cc1)c1csc(-c2ccccc2)n1` [4-{(S)-2-(S)-2-(tert-Butoxycarbonylamino)-3-phenylpropanamido-2-(2-phenylthiazol-4-yl)}phenylsulfamic acid], half-maximal inhibition at PTP1B (IC50) was put at 905 nM.

Take `CC(C)(C)OC(=O)N[C@@H](Cc1ccc(NS(=O)(=O)O)cc1)c1nc(-c2cccc(C(F)(F)F)c2)cs1` [4-((S)-2-(tert-Butoxycarbonylamino)-2-(4-(3-(trifluoromethyl)phenyl)thiazol-2-yl)ethyl)-phenyl sulfamic acid]: the figures for the IC50 on HPTPβ and at PTP1B were 253 nM and 11800 nM, respectively.

For the compound `COC(=O)N[C@@H](Cc1ccccc1)C(=O)N[C@@H](Cc1ccc(NS(=O)(=O)O)cc1)c1nc2c(s1)CCC2` [4-{(S)-2-(5,6-Dihydro-4H-cyclopenta[d]thiazol-2-yl)-2-[(S)-2-(methoxycarbonylamino)-3-phenylpropanamido]ethyl}phenylsulfamic acid], the results for the IC50 at HPTPβ and at PTP1B were 1 nM and 180 nM, respectively.

On to `COCc1csc([C@H](Cc2ccc(NS(=O)(=O)O)cc2)NC(=O)[C@H](Cc2ccccc2)NC(=O)OC)n1` [4-{(S)-2-[(S)-2-(Methoxycarbonylamino)-3-phenylpropanamido]-2-[4-(methoxymethyl)thiazol-2-yl]ethyl}phenylsulfamic acid], for which the IC50 at HPTPβ was determined as 1 nM; on PTP1B, 640 nM.

In the case of `CCc1csc([C@H](Cc2ccc(NS(=O)(=O)O)cc2)NC(=O)[C@H](CC(C)C)NC(=O)OC(C)(C)C)n1` [4-{(S)-2-[(S)-2-(tert-Butoxycarbonylamino)-4-methylpentanamido]-2-(4-ethylthiazol-2-yl)ethyl}phenylsulfamic acid], the IC50 came out at 1 nM against HPTPβ and 480 nM against PTP1B.

On PTP1B, `COC(=O)N[C@@H](Cc1ccccc1)C(=O)N[C@@H](Cc1ccc(NS(=O)(=O)O)cc1)c1nc(C2CCCCC2)cs1` [4-{(S)-2-(4-Cyclohexylthiazol-2-yl)-2-[(S)-2-(methoxycarbonylamino)-3-phenyl-propanamido]ethyl}phenylsulfamic acid] showed an IC50 of 1780 nM.

The compound `COC(=O)N[C@@H](Cc1ccccc1)C(=O)N[C@@H](Cc1ccc(NS(=O)(=O)O)cc1)c1csc(-c2ccccc2)n1` [4-{(S)-2-[(S)-2-(Methoxycarbonylamino)-3-phenylpropionamido]-2-(2-phenylthiazole-4-yl)ethyl}phenylsulfamic acid] displayed an IC50 on PTP1B of 508 nM.

With `CCc1nc([C@H](Cc2ccc(NS(=O)(=O)O)cc2)NC(=O)[C@H](Cc2ccccc2)NC(=O)OC)sc1-c1ccccc1` [4-{(S)-2-(4-Ethyl-5-phenylthiazol-2-yl)-2-[(S)-2-(methoxy-carbonylamino)-3-phenyl-propanamido]ethyl}phenylsulfamic acid], on PTP1B, the IC50 came to 390 nM.

With `COC(=O)N[C@@H](Cc1ccccc1)C(=O)N[C@@H](Cc1ccc(NS(=O)(=O)O)cc1)c1csc(-c2ccco2)n1`, the midpoint of inhibition on PTP1B, the IC50, lay at 5000 nM.

On PTP1B, `COC(=O)N[C@@H](Cc1ccccc1)C(=O)N[C@@H](Cc1ccc(NS(=O)(=O)O)cc1)c1csc(-c2sccc2C)n1` [4-{(S)-2-[(S)-2-(Methoxycarbonylamino)-3-phenylpropanamido]-2-[2-(3-methylthiophen-2-yl)thiazol-4-yl]ethyl}phenylsulfamic acid] displayed an IC50 of 1090 nM.

With `COC(=O)N[C@@H](Cc1ccccc1)C(=O)N[C@@H](Cc1ccc(NS(=O)(=O)O)cc1)c1csc(-c2cccs2)n1` [4-{(S)-2-[(S)-2-(Methoxycarbonylamino)-3-phenylpropanamido]-2-[2-(thiophen-2-yl)thiazol-4-yl]ethyl}phenylsulfamic acid], on PTP1B, 604 nM corresponded to half-maximal inhibition (IC50).

Take `Cc1csc([C@H](Cc2ccc(NS(=O)(=O)O)cc2)NC(=O)C(C)(C)C)n1` [(S)-4-(2-(4-Methylthiazol-2-yl)-2-pivalamidoethyl)phenyl-sulfamic acid]: half-maximal inhibition against PTP1B (IC50) required 50000 nM.

At PTP1B, `COC(=O)N[C@@H](Cc1ccccc1)C(=O)N[C@@H](Cc1ccc(NS(=O)(=O)O)cc1)c1nc(-c2ccc(Cl)s2)cs1` [4-{(S)-2-[4-(5-Chlorothiophen-2-yl)thiazol-2-yl]-2-[(S)-2-(methoxycarbonylamino)-3-phenylpropanamido]ethyl}phenyl-sulfamic acid] showed an IC50 of 370 nM.

Turning to “4-((S)-2-(4-Ethylthiazol-2-yl)-2-{(S)-2-[2-(methoxycarbonylamino)-acetamido]-3-phenylpropanamido}ethyl)phenylsulfamic acid”, at PTP1B, the IC50 is 299 nM.

As to `COC(=O)N[C@@H](Cc1ccccc1)C(=O)N[C@@H](Cc1ccc(NS(=O)(=O)O)cc1)c1csc(-c2sccc2Cl)n1` [4-{(S)-2-[2-(3-Chlorothiophen-2-yl)thiazol-4-yl]-2-[(S)-2-(methoxycarbonylamino)-3-phenylpropanamido]ethyl}phenylsulfamic acid], at PTP1B, half-maximal inhibition (IC50) required 950 nM.
